Test results: patent US20100154083A1, “Methods and Compositions for the Selection of A Transgenic Plant” (Pioneer Hi-Bred International, Inc., priority 2006, published 2010)

Test system: non-transgenic maize seed from inbred N46
Assay: Priming matrix additive: Dormex + DMSO
Format: in vivo
Settings: 1% DMSO without Dormex, 3 hours
Method: Non-transgenic maize seed from inbred N46 were primed with 0, 5, 10, 15, or 30% Dormex® solutions with and without 1% DMSO. For each treatment, 96 seeds were soaked in 50 ml of Dormex® solution in a petri dish for 3 hours at room temperature. After priming the seeds were transferred into pollination bags, and dried overnight in front of a fan. Dried primed seed were then planted into flats to germinate.

For `C[S+](C)[O-]` [DMSO], the Germination % was 93%.
